Experimental data from BindingDB's records for patent US12110299 (Yungjin Pharm., 2024).

Biological target: Cyclin-dependent kinase 7 (Homo sapiens, UniProt P50613)
Experiment: CDK7 Kinase Activity Assay
Experimental: Representative compounds of the present invention were assayed in vitro for CDK7 kinase-inhibitory activities using ADP-Glo platform. In detail, CDK7 kinase-inhibitory activity was measured using recombinant purified human CDK7 kinase (ThermoFisher, PV3868) and ADP Glo kinase assays kit (Promega, V9102). CDK7 kinase was diluted with 1× kinase reaction buffer (40 mM Tris-C1, pH 7.5, 20 mM MgCl2, 0.1 mg/ml BSA and 50 [M DTT) and added to 96 well plates (final concentration of CDK7 per reaction: 50 ng). The compound was finally treated to be a 1% DMSO aqueous solution, and a substrate cocktail containing ATP (final concentration of 90 [M) and 0.2 μg/μl of MBP (Myelin basic protein) in a total of 25 μl of reaction mass was added to 96 well plates, thereby initiating an enzymatic reaction. After 2 hours of incubation (30° C.), equivalent volume (25 μl per reaction) of ADP Glo was added and incubated (30° C.) at room temperature for 60 minutes. […] The kinase activity was measured by chemiluminescence method according to ADP Glo Kanease Assay Kit instruction manual, and the CDK7-inhibitory activity of the compounds according to the present invention was calculated. The result analysis of each compound was performed using Microsoft Excel, and IC50 values were calculated by Prism software.

Chain of Cyclin-dependent kinase 7 (P50613 whole entry): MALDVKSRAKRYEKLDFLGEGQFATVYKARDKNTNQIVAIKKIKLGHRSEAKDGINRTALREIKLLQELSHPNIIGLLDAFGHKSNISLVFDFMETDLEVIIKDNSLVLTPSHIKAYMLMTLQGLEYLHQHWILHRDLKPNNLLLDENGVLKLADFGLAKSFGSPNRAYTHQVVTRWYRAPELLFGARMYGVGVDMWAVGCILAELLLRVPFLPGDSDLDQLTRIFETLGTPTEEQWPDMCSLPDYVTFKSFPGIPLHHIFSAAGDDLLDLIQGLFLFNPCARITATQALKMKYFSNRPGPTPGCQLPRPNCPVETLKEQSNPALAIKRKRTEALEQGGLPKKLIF

## C[C@H](C(=O)Nc1ncc(Cl)s1)c1cccc(-c2cnc(NC(=O)/C=C/CN3CC4CC3CO4)cn2)c1 (stereo partly specified) [US12110299, Example 94]
  IC50: 14 nM
